Assay results taken from ChEMBL document CHEMBL4507265 (2021).

Tests used:
[1] = target: 5-hydroxytryptamine receptor 1B (Homo sapiens) (UniProt P28222); settings: Compound concentration 10.0 uM
[2] = target: Cyclin-dependent kinase-like 5 (Homo sapiens) (UniProt O76039); settings: Compound concentration 1000.0 nM
[3] = target: Ephrin type-B receptor 2 (Homo sapiens) (UniProt P29323); settings: Compound concentration 1000.0 nM
[4] = target: Serine/threonine-protein kinase Chk1 (Homo sapiens) (UniProt O14757); settings: Compound concentration 1000.0 nM
[5] = target: Citron Rho-interacting kinase (Homo sapiens) (UniProt O14578); settings: Compound concentration 1000.0 nM
[6] = target: Dual serine/threonine and tyrosine protein kinase (Homo sapiens) (UniProt Q6XUX3); settings: Compound concentration 1000.0 nM
[7] = target: Serine/threonine-protein kinase Nek5 (Homo sapiens) (UniProt Q6P3R8); settings: Compound concentration 1000.0 nM
[8] = system: Mast/stem cell growth factor receptor Kit (Homo sapiens), P10721 [V559D,V654A]; settings: Compound concentration 1000.0 nM
[9] = target: Tyrosine-protein kinase Fyn (Homo sapiens) (UniProt P06241); settings: Compound concentration 1000.0 nM
[10] = system: ALK tyrosine kinase receptor (Homo sapiens), Q9UM73 [C1156Y]; settings: Compound concentration 1000.0 nM
[11] = target: Myosin light chain kinase, smooth muscle (Homo sapiens) (UniProt Q15746); settings: Compound concentration 1000.0 nM
[12] = target: Casein kinase I isoform alpha (Homo sapiens) (UniProt P48729); settings: Compound concentration 1000.0 nM
[13] = target: Non-receptor tyrosine-protein kinase TYK2 (Homo sapiens) (UniProt P29597); settings: Compound concentration 1000.0 nM
[14] = system: Serine/threonine-protein kinase B-raf (Homo sapiens), P15056 [V600E]; settings: Compound concentration 1000.0 nM
[15] = system: Receptor-type tyrosine-protein kinase FLT3 (Homo sapiens), P36888 [UNDEFINED MUTATION]; settings: Compound concentration 1000.0 nM
[16] = system: Epidermal growth factor receptor (Homo sapiens), P00533 [UNDEFINED MUTATION]; settings: Compound concentration 1000.0 nM
[17] = target: BDNF/NT-3 growth factors receptor (Homo sapiens) (UniProt Q16620); settings: Compound concentration 1000.0 nM
[18] = target: Serine/threonine-protein kinase 10 (Homo sapiens) (UniProt O94804); settings: Compound concentration 1000.0 nM
[19] = target: Kappa-type opioid receptor (Homo sapiens) (UniProt P41145); settings: Compound concentration 10.0 uM
[20] = target: Cyclin-dependent kinase 15 (Homo sapiens) (UniProt Q96Q40); settings: Compound concentration 1000.0 nM
[21] = target: Muscle, skeletal receptor tyrosine-protein kinase (Homo sapiens) (UniProt O15146); settings: Compound concentration 1000.0 nM
[22] = target: Serine/threonine-protein kinase PAK 4 (Homo sapiens) (UniProt O96013); settings: Compound concentration 1000.0 nM
[23] = target: Calcium/calmodulin-dependent protein kinase type II subunit beta (Homo sapiens) (UniProt Q13554); settings: Compound concentration 1000.0 nM
[24] = target: Tyrosine-protein kinase ABL1 (Homo sapiens) (UniProt P00519); settings: Compound concentration 1000.0 nM
[25] = target: Cyclin-dependent kinase 13 (Homo sapiens) (UniProt Q14004); settings: Compound concentration 1000.0 nM
[26] = target: Serine/threonine-protein kinase MRCK beta (Homo sapiens) (UniProt Q9Y5S2); settings: Compound concentration 1000.0 nM
[27] = target: Cyclin-dependent kinase 9 (Homo sapiens) (UniProt P50750); settings: Compound concentration 1000.0 nM
[28] = target: cAMP-dependent protein kinase catalytic subunit alpha (Homo sapiens) (UniProt P17612); settings: Compound concentration 1000.0 nM
[29] = target: Tyrosine-protein kinase JAK2 (Homo sapiens) (UniProt O60674); settings: Compound concentration 1000.0 nM
[30] = target: Serine/threonine-protein kinase Sgk3 (Homo sapiens) (UniProt Q96BR1); settings: Compound concentration 1000.0 nM
[31] = target: Receptor-type tyrosine-protein kinase FLT3 (Homo sapiens) (UniProt P36888); settings: Compound concentration 1000.0 nM
[32] = target: Tyrosine-protein kinase CSK (Homo sapiens) (UniProt P41240); settings: Compound concentration 1000.0 nM
[33] = system: Epidermal growth factor receptor (Homo sapiens), P00533 [L858R]; settings: Compound concentration 1000.0 nM
[34] = target: Serine/threonine-protein kinase BRSK1 (Homo sapiens) (UniProt Q8TDC3); settings: Compound concentration 1000.0 nM
[35] = target: Serine/threonine-protein kinase Nek7 (Homo sapiens) (UniProt Q8TDX7); settings: Compound concentration 1000.0 nM
[36] = target: Serine/threonine-protein kinase PLK2 (Homo sapiens) (UniProt Q9NYY3); settings: Compound concentration 1000.0 nM
[37] = target: Serine/threonine-protein kinase SIK3 (Homo sapiens) (UniProt Q9Y2K2); settings: Compound concentration 1000.0 nM
[38] = target: Mitogen-activated protein kinase 1 (Homo sapiens) (UniProt P28482); settings: Compound concentration 1000.0 nM
[39] = target: BMP-2-inducible protein kinase (Homo sapiens) (UniProt Q9NSY1); settings: Compound concentration 1000.0 nM
[40] = target: Serine/threonine-protein kinase 38 (Homo sapiens) (UniProt Q15208); settings: Compound concentration 1000.0 nM
[41] = target: RAF proto-oncogene serine/threonine-protein kinase (Homo sapiens) (UniProt P04049); settings: Compound concentration 1000.0 nM
[42] = target: Cyclin-dependent kinase-like 2 (Homo sapiens) (UniProt Q92772); settings: Compound concentration 1000.0 nM
[43] = target: D(1B) dopamine receptor (Homo sapiens) (UniProt P21918); settings: Compound concentration 10.0 uM
[44] = target: Ribosomal protein S6 kinase alpha-5 (Homo sapiens) (UniProt O75582); settings: Compound concentration 1000.0 nM
[45] = target: Ephrin type-A receptor 6 (Homo sapiens) (UniProt Q9UF33); settings: Compound concentration 1000.0 nM

Sequence of Cyclin-dependent kinase 13 (Homo sapiens) (Q14004 whole entry, looked up): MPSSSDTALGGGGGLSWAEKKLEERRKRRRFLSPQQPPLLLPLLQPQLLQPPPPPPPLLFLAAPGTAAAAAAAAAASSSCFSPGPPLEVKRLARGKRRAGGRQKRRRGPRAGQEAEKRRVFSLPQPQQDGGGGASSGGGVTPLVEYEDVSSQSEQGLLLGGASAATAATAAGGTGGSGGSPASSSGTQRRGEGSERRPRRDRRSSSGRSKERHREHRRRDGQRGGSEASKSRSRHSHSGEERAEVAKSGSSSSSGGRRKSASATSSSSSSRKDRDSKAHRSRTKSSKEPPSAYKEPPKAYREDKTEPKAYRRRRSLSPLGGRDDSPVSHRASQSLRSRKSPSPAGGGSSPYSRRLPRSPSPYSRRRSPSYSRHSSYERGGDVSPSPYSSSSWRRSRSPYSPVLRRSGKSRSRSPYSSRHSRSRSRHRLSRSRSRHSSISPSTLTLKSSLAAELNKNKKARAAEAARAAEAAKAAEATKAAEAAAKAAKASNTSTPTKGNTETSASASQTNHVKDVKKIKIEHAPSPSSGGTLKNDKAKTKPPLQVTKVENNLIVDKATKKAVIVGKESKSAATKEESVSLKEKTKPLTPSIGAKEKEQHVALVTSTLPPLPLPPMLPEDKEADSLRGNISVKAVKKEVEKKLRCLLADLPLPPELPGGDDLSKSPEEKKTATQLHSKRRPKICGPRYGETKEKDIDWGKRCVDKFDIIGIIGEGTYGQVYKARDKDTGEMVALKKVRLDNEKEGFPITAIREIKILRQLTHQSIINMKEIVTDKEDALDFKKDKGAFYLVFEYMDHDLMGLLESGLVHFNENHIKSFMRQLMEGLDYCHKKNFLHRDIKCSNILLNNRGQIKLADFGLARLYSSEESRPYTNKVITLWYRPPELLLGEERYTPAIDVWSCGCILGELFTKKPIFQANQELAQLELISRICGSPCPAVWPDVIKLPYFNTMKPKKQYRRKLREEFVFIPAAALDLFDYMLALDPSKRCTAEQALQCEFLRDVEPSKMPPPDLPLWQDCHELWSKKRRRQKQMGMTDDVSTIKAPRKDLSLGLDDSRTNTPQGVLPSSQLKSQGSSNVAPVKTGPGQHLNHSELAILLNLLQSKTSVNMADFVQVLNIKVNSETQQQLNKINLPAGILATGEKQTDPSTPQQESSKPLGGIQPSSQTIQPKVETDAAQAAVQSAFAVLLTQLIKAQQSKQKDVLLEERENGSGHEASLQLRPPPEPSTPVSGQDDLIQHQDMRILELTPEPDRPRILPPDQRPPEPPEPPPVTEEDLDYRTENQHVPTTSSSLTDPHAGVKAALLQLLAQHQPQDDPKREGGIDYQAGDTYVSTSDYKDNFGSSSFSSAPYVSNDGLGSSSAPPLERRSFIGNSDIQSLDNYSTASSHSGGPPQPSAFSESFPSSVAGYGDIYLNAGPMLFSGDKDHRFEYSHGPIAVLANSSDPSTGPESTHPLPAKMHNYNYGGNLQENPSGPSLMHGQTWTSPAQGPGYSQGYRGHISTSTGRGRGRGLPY
Sequence of 5-hydroxytryptamine receptor 1B (Homo sapiens) (P28222 whole entry): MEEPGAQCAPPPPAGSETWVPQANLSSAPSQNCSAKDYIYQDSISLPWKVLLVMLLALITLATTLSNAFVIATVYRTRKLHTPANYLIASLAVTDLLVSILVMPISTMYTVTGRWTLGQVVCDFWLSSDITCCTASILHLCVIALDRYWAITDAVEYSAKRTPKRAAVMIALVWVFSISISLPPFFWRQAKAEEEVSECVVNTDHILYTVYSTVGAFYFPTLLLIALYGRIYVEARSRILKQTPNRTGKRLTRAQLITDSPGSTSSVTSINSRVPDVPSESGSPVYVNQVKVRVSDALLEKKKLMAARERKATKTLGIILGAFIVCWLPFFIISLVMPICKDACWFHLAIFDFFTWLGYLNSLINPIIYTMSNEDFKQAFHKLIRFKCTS
Sequence of Cyclin-dependent kinase-like 5 (Homo sapiens) (O76039 whole entry): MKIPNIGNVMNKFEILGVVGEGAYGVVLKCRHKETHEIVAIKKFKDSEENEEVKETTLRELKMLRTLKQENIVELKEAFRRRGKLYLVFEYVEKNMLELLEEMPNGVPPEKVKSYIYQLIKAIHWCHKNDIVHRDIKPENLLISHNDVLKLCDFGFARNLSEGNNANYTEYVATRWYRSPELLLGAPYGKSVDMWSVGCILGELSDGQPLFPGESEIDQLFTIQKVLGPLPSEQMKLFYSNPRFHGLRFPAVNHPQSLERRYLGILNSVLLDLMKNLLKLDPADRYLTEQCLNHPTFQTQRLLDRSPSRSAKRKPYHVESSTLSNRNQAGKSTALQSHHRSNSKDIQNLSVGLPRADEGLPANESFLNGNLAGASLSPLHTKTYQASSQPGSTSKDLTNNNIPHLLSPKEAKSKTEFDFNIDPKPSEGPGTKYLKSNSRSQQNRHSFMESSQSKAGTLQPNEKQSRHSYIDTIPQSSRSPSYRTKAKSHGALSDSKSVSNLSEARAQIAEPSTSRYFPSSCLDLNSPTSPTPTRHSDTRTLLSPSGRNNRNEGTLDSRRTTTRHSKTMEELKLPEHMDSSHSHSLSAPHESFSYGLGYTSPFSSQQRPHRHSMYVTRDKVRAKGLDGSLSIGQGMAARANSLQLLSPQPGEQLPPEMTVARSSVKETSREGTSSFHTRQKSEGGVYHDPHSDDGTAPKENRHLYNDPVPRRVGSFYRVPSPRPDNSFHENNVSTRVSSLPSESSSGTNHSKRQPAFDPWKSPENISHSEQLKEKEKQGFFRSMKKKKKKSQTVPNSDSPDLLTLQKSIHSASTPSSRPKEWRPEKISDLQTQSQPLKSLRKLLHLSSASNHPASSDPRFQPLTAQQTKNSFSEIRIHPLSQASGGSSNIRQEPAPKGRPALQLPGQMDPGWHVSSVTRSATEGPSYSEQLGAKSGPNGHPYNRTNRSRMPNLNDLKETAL
Sequence of Mast/stem cell growth factor receptor Kit (Homo sapiens), P10721 [V559D,V654A] (P10721 whole entry V559D/V654A): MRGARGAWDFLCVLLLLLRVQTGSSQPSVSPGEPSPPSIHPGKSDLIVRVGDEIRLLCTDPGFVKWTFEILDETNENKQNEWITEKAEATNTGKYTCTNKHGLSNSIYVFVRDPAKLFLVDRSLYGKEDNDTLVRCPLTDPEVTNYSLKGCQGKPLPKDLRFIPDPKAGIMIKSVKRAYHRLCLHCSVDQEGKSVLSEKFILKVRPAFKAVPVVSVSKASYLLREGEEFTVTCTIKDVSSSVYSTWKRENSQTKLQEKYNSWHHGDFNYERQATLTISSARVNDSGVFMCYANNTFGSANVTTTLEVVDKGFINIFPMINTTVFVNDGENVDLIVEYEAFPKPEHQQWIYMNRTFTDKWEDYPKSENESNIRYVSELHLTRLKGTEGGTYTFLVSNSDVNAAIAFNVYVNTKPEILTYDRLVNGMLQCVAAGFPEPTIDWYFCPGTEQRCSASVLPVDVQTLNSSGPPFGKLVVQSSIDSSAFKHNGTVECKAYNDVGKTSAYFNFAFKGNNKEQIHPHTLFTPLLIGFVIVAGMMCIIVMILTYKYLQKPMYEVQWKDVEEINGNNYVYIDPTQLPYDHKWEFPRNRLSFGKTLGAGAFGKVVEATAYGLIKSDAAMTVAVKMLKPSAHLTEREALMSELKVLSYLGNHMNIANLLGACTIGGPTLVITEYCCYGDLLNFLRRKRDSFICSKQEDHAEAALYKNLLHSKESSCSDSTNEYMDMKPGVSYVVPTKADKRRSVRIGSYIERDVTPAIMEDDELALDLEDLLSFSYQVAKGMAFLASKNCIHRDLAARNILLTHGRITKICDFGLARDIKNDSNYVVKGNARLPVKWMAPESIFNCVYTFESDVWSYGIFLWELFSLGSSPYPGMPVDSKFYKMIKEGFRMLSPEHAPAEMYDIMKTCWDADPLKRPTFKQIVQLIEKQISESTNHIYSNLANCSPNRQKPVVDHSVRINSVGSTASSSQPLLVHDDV
Sequence of Ribosomal protein S6 kinase alpha-5 (Homo sapiens) (O75582 whole entry, looked up): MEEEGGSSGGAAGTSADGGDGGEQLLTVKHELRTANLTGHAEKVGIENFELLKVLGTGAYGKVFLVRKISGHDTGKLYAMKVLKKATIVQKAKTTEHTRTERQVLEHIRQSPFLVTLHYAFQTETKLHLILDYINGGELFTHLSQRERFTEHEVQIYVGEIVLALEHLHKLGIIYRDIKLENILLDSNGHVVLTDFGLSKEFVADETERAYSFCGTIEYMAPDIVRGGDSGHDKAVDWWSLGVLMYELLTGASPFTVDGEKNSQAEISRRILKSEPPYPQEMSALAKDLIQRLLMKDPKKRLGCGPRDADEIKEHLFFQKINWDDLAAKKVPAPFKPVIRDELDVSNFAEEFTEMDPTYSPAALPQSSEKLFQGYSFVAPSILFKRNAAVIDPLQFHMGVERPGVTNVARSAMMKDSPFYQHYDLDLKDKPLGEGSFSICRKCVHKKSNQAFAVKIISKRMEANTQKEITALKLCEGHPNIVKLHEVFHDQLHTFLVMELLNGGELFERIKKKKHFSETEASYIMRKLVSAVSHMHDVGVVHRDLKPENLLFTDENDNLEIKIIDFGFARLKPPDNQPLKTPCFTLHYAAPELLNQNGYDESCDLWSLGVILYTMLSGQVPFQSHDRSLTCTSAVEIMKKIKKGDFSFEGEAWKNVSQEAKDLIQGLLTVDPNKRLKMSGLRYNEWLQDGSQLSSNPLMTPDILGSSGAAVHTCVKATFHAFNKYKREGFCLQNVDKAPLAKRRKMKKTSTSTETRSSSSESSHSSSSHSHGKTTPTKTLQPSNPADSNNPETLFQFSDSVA
Sequence of Serine/threonine-protein kinase 38 (Homo sapiens) (Q15208 2-465 limits assumed): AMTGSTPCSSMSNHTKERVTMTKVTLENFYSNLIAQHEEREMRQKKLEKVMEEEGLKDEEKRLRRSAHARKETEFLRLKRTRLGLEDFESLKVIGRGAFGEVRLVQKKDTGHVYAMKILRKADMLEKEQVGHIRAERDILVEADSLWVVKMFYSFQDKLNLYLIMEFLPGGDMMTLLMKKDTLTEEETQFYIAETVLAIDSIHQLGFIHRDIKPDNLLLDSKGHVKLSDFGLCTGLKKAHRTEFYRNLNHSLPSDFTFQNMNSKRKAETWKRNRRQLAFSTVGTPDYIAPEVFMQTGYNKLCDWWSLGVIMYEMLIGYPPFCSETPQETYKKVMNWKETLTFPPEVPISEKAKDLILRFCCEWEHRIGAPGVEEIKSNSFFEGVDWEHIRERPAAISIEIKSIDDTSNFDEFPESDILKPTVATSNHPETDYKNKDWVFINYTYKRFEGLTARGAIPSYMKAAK

NS(=O)(=O)c1cc(NC(=O)Cc2ccccc2)ccc1Oc1cccc(Cl)c1 [BAY-1797]
inactive: inhibition [1] -2.93% | residual activity [2] 83% | residual activity [3] 100% | residual activity [4] 99% | residual activity [5] 100% | residual activity [6] 83% | residual activity [7] 77% | residual activity [8] 100% | residual activity [9] 69% | residual activity [10] 88% | residual activity [11] 73% | residual activity [12] 93% | residual activity [13] 90% | residual activity [14] 89% | residual activity [15] 97% | residual activity [16] 86% | residual activity [17] 66% | residual activity [18] 65% | inhibition [19] 20.3% | residual activity [20] 88% | residual activity [21] 100% | residual activity [22] 87% | residual activity [23] 100% | residual activity [24] 75% | residual activity [25] 92% | residual activity [26] 100% | residual activity [27] 92% | residual activity [28] 94% | residual activity [29] 73% | residual activity [30] 83% | residual activity [31] 100% | residual activity [32] 100% | residual activity [33] 85% | residual activity [34] 91% | residual activity [35] 86% | residual activity [36] 73% | residual activity [37] 87% | residual activity [38] 71% | residual activity [39] 94% | residual activity [40] 90% | residual activity [41] 100% | residual activity [42] 99% | inhibition [43] 27.7% | residual activity [44] 71% | residual activity [45] 83%

NS(=O)(=O)c1cc(NC(=O)C2(c3ccccc3Cl)CC2)ccc1Oc1cccc(Cl)c1 [BAY-207]
inactive: inhibition [1] 4.81% | residual activity [2] 95% | residual activity [3] 74% | residual activity [4] 80% | residual activity [5] 78% | residual activity [6] 93% | residual activity [7] 89% | residual activity [8] 100% | residual activity [9] 100% | residual activity [10] 100% | residual activity [11] 72% | residual activity [12] 100% | residual activity [13] 100% | residual activity [14] 74% | residual activity [15] 100% | residual activity [16] 96% | residual activity [17] 100% | residual activity [18] 69% | inhibition [19] 21.2% | residual activity [20] 98% | residual activity [21] 77% | residual activity [22] 74% | residual activity [23] 100% | residual activity [24] 88% | residual activity [25] 100% | residual activity [26] 62% | residual activity [27] 78% | residual activity [28] 94% | residual activity [29] 100% | residual activity [30] 90% | residual activity [31] 100% | residual activity [32] 100% | residual activity [33] 79% | residual activity [34] 82% | residual activity [35] 90% | residual activity [36] 84% | residual activity [37] 87% | residual activity [38] 75% | residual activity [39] 74% | residual activity [40] 81% | residual activity [41] 81% | residual activity [42] 94% | inhibition [43] 20.8% | residual activity [44] 100% | residual activity [45] 54%
